Data set [1] can be described thus: Stability in mouse whole blood (LC-QTOF MS). Format: in vitro ADME. To be noted: peptide 1 mg/ml; 0, 15, 30, 60, 120 minutes; compared to P5 control (FIG. 3). How it is done: Mouse whole blood was treated with peptide (1 mg/ml) and reacted for 0, 15, 30, 60, and 120 minutes, followed by analyzing the peptides remaining as LC-QTOF MS.
A short description of data set [2]: Determination of solubility. Format: physicochemical. How it is done:
To 5 mg of each of the peptides synthesized by the above method, a small amount of water or butylene glycol was added to measure solubility.

For data set [3], the system named is C57BL/6 mice. As to the kind of experiment: Hair growth promoting efficacy in mice. Format: in vivo, mouse. The note with it: lower back skin, once a day, after about 4 weeks; P5N 0.1 mM, P5 0.05 and 0.1 mM, MNX 3% (FIG. 11). The source says: It is known that all the hairs of a mouse go through a process in which the hair enters the resting phase at 7 to 8 weeks of age and is converted back to the growing phase. Accordingly, the effect of the peptide of the present invention on the growth phase inducing process was confirmed using C57BL/6 mice. Specifically, 3% of minoxidil (MNX), which is commonly used as a treatment for hair loss and hair growth, on the skin of the lower back of the mouse, the existing adiponectin-derived peptide […] NO: 2), […] and 0.1 mM), and the present peptide […] NO: 2)-NH2) were applied at 0.1 mM concentration, respectively, once a day. Thereafter, hair growth was investigated. As a result, in the group treated with the peptide of the present invention as in the positive controls, it was confirmed […], after about 4 weeks, a proportion of the region where hair was grown in the growth phase among the region where hair was first removed is increased (FIG. 11).

Data set [4] deals with sensitive skin. As to the kind of experiment: Sensitive skin improvement, double-blind application study (lactate test, biopsy). Format: in vivo, human. The note with it: for proportion of test group improved from sensitive skin to non-sensitive skin: 0.01%, 27 persons per group. The text has this:
In order to classify patients with sensitive skin, a double-blind organ application study was executed by conducting the lactate puncture test (Contact Dermatitis 2010; 62: 137-49), which is the most widely used and known reliable test for diagnosis of sensitive skin (a total of 54 persons, the peptide of the present invention PSN: GLYYF(SEQ ID NO: 2)-NH2 (APNSN) 0.01% vs control (placebo), 27 persons per application group). From the volunteers who agreed to the biopsy (peptide PSN: GLYYF(SEQ ID NO: 2)-NH2 (APNSN) of the present invention 0.01% vs control material (placebo), 8 persons per application group), the skin tissues at the facial baseline and the skin tissues after 8 weeks application were obtained from total 4 sites (for 2 sites per each) by 2 mm punch. For the obtained skin tissues, quantitative PCR analysis and immunohistochemistry were performed for sensitive skin-related genes and markers including adiponectin. […] Further, at the second visit, it could be seen that 29.6% of the test group was improved from the sensitive skin to the non-sensitive skin. […] There was no significant difference between the above two groups (p=0.327, fisher's exact test). Further, at the 3rd visit, the initial sensitive skin improved to non-sensitive skin in 48.1% of the test group, whereas only 14.8% of the control improved to non-sensitive skin, which is the same as at the 2nd visit. […] Further, since the expression of adiponectin was reduced in the patients having sensitive skin, a change in adiponectin gene expression after APNSN treatment could be an important indicator of sensitivity improvement. Therefore, as a result of confirming the expression of adiponectin, the sub-signaling factor P-AMPK of adiponectin and the sensitivity inducing factor TRPV1 (FIG. 10) through biopsy, the expression adiponectin and P-AMPK was increased after application in the test group containing APNSN, whereas the expression of TRPV1 was decreased. […] On the other hand, there was no statistically significant change in the expression of adiponectin in the control after application of the control material.

[5] abbreviates: water : butylene glycol mixture, Solvent H2O: BG, mixed solvent.
The mark [6] stands for this setting: Solvent BG (butylene glycol), single solvent.
Where [7] appears, read: biopsy after application (FIG. 10).

Values after ≈ are worked out from the molar mass of the structure shown. Where a SMILES comes first, the peptide text is derived from it. [ ]: non-standard residue; d: D form.

In the case of `CC(C)C[C@H](N)C(=O)N[C@@H](Cc1ccc(O)cc1)C(=O)N[C@H](Cc1ccc(O)cc1)C(=O)N[C@@H](Cc1ccccc1)C(=O)O` [Peptide P4-4, LYyF (SEQ ID NO: 1)] (H-LY[dY]F-OH; N-terminus assumed), the “stability (peptides remaining)” value in data set [1] was “improved stability”.
`CC(C)C[C@H](N)C(=O)N[C@@H](Cc1ccc(O)cc1)C(=O)N[C@@H](Cc1ccc(O)cc1)C(=O)N[C@H](Cc1ccccc1)C(=O)O` [Peptide P4-5, LYYf (SEQ ID NO: 1)] (H-LYY[dF]-OH; N-terminus assumed) returned a solubility in data set [2] (water, Solvent H2O, single solvent) of 2500 µg/mL (≈ 4.13 mM).
With `CC(C)C[C@@H](N)C(=O)N[C@@H](Cc1ccc(O)cc1)C(=O)N[C@@H](Cc1ccc(O)cc1)C(=O)N[C@@H](Cc1ccccc1)C(N)=O` [Peptide P4-6, lYYF (SEQ ID NO: 1)-NH2] (H-[dL]YYF-NH2), in data set [2] (setting [5]), the solubility was 4000 µg/mL (≈ 6.63 mM).
Take `CC(C)C[C@H](N)C(=O)N[C@@H](Cc1ccc(O)cc1)C(=O)N[C@@H](Cc1ccc(O)cc1)C(=O)N[C@H](Cc1ccccc1)C(N)=O` [Peptide P4-9, LYYf (SEQ ID NO: 1)-NH2] (H-LYY[dF]-NH2): the solubility in data set [2] (setting [5]) turned out to be 4000 µg/mL (≈ 6.63 mM).
`CC(C)C[C@H](NC(=O)CN)C(=O)N[C@@H](Cc1ccc(O)cc1)C(=O)N[C@@H](Cc1ccc(O)cc1)C(=O)N[C@@H](Cc1ccccc1)C(=O)O` [Peptide P5, GLYYF (SEQ ID NO: 2), reference compound]: in data set [2] (ethanol : propylene glycol mixture, Solvent EtOH: PG (propylene glycol), mixed solvent), the solubility was 1000 µg/mL (≈ 1.51 mM). Moreover, the “proportion of the region where hair was grown in the growth phase” value in data set [3] is recorded as “increased”.
In the case of `CC(C)C[C@@H](NC(=O)CN)C(=O)N[C@@H](Cc1ccc(O)cc1)C(=O)N[C@@H](Cc1ccc(O)cc1)C(=O)N[C@@H](Cc1ccccc1)C(=O)O` [Peptide P5-1, GlYYF (SEQ ID NO: 2)], the concentration in solution in data set [2] (setting [6]) (solubility) was 3000 µg/mL (≈ 4.53 mM).
As to `CC(C)C[C@H](NC(=O)CN)C(=O)N[C@@H](Cc1ccc(O)cc1)C(=O)N[C@H](Cc1ccc(O)cc1)C(=O)N[C@@H](Cc1ccccc1)C(=O)O` [Peptide P5-3, GLYyF (SEQ ID NO: 2)], the solubility in data set [2] (setting [5]) amounted to 3000 µg/mL (≈ 4.53 mM).
`CC(C)C[C@H](NC(=O)CN)C(=O)N[C@@H](Cc1ccc(O)cc1)C(=O)N[C@@H](Cc1ccc(O)cc1)C(=O)N[C@H](Cc1ccccc1)C(=O)O` [Peptide P5-4, GLYYf (SEQ ID NO: 2)]: the concentration in solution in data set [2] (setting [6]) (solubility) was 3000 µg/mL (≈ 4.53 mM).
Turning to `CC(C)C[C@H](NC(=O)CN)C(=O)N[C@@H](Cc1ccc(O)cc1)C(=O)N[C@@H](Cc1ccc(O)cc1)C(=O)N[C@@H](Cc1ccccc1)C(N)=O` [Peptide P5-5, GLYYF (SEQ ID NO: 2)-NH2], in data set [4] (2nd visit (4 weeks after application)), the “proportion of test group improved from sensitive skin to non-sensitive skin” value is listed as 29.6%. Further, the “proportion of test group improved from sensitive skin to non-sensitive skin” value in data set [4] (3rd visit (8 weeks after application)) was 48.1%. Further, the “sensitive skin to non-sensitive skin in lactic acid test” value in data set [4] (2nd and 3rd visit (FIG. 9)) was “significantly improved”. Moreover, in data set [4] (setting [7]), the “expression of P-AMPK” value is on record as “increased”, the “expression of TRPV1” value is “decreased” and the expression of adiponectin result was “increased”. The “increase of expression of adiponectin compared to before application” value in data set [4] (twice a day for 8 weeks, biopsy) is “more than 4 times”. The “proportion of the region where hair was grown in the growth phase” value in data set [3] is given as “increased”. For the same compound, the “stability (peptides remaining)” value in data set [1] is listed as “improved stability”.
In the case of `CC(C)C[C@H](NC(=O)CN)C(=O)N[C@@H](Cc1ccc(O)cc1)C(=O)N[C@H](Cc1ccc(O)cc1)C(=O)N[C@@H](Cc1ccccc1)C(N)=O` [Peptide P5-8, GLYyF (SEQ ID NO: 2)-NH2], the solubility in data set [2] (setting [6]) came out at 3000 µg/mL (≈ 4.54 mM).

The solubility is how much of the substance goes into solution per volume.
